The values that follow are results of earlier work, collected in paper PMC4969713 (Journal of Alzheimer's Disease, 2016).

SMILES strings stand for the structures. Where only a bound is given, the exact number is not on record here.

The target of one series is 5-HT1B receptor. The settings on record: Table 2; cited from earlier work.
For the next series, the target named is 5-HT2A receptor (Homo sapiens, UniProt P28223). The settings on record: Table 2; cited from earlier work.
In the next series the target is 5-HT1A receptor (Homo sapiens, UniProt P08908). As to conditions: Table 2; cited from earlier work.
The next series deals with T1, 5-HT2C receptor (Homo sapiens, UniProt P28335).
T1 sequence (P28335 33-458): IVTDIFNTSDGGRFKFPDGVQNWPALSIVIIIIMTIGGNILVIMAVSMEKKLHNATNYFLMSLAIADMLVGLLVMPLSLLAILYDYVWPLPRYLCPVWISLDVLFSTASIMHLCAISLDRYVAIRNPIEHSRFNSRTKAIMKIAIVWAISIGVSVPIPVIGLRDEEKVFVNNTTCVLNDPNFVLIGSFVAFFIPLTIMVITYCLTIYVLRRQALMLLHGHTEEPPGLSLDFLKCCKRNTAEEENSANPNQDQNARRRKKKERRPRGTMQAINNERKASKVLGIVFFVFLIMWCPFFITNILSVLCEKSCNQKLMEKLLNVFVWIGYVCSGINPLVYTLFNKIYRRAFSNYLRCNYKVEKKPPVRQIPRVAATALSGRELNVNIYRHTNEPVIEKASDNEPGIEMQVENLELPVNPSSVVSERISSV
The settings on record: Table 2; cited from earlier work.

The next series deals with 5-HT2B receptor (Homo sapiens, UniProt P41595). As to conditions: Table 2; cited from earlier work.
The target of another series is 5-HT7 receptor (Homo sapiens, UniProt P34969). The settings on record: cited from earlier work.
Sequence of 5-HT7 receptor (P34969 whole entry): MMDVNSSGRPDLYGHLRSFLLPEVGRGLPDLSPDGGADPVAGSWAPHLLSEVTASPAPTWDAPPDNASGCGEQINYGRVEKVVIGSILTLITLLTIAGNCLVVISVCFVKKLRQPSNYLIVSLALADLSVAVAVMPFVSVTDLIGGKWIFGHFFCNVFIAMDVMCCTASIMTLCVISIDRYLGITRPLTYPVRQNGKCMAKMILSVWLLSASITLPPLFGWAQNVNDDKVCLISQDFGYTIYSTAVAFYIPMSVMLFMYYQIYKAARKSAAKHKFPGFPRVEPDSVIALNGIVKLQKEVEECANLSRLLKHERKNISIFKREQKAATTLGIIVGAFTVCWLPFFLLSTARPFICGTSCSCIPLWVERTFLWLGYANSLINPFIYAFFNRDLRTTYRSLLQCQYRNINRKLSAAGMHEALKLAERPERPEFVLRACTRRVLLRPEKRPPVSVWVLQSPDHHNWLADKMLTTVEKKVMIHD

Sequence of 5-HT2B receptor (P41595 whole entry): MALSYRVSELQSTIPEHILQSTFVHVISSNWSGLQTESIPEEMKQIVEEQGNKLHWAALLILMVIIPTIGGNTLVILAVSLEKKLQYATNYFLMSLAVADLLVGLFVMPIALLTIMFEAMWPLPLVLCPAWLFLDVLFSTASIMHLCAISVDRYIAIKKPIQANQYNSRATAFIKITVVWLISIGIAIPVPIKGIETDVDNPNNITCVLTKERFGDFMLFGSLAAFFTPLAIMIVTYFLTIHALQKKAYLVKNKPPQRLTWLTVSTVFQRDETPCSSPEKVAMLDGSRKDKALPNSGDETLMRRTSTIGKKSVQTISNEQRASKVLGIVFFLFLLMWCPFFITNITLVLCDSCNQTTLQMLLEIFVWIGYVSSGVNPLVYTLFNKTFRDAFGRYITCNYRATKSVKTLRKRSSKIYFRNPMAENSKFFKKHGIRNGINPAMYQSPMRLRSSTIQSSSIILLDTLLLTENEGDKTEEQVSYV
Sequence of 5-HT1A receptor (P08908 whole entry): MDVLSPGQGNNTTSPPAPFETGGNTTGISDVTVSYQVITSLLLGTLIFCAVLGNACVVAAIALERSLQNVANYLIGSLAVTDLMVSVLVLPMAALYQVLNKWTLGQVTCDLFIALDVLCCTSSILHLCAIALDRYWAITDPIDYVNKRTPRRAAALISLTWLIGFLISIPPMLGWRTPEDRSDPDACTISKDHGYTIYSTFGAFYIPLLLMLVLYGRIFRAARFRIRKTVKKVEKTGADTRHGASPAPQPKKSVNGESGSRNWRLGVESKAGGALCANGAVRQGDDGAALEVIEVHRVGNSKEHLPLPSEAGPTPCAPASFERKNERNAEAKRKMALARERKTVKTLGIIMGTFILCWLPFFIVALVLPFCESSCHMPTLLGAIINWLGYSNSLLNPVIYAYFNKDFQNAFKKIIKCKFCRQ
Sequence of 5-HT2A receptor (P28223 whole entry): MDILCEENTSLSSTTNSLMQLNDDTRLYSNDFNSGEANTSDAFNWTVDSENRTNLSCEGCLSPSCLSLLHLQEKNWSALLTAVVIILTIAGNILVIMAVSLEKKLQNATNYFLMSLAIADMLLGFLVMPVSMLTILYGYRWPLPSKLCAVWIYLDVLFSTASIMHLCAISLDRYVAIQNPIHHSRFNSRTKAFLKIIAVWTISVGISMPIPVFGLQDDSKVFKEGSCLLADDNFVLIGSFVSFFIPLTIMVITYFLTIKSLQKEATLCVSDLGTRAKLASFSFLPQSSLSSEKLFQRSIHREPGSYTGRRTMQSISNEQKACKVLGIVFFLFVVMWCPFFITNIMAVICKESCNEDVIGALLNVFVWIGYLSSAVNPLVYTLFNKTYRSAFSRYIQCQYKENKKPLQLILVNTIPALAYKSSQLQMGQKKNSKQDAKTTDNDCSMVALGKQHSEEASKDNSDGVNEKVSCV

What is called Ki is a measure of affinity in units of concentration, obtained from inhibition or displacement. Turning to `Fc1ccc2c(CCNCc3cccc(OCC(F)(F)C(F)F)c3)c[nH]c2c1` [Lu AE58054], the Ki on 5-HT1B receptor was more than 10000 nM; on 5-HT2A receptor, 83 nM; on 5-HT1A receptor it was 2300 nM; on 5-HT2C receptor, 250 nM; on 5-HT2B receptor, more than 4100 nM; at 5-HT7 receptor (Table 2), more than 10000 nM. Further, the binding affinity result on 5-HT7 receptor was “very low, if any”.
